The source of these data is patent publication US20150080438A1, “6,7-Dihydro-5H-benzo[7]annulene derivatives, processes for their preparation, pharmaceutical products comprising them and their use for preparing medicaments” (Bayer Intellectual Property GmbH, priority 2011, published 2015).

Molecules are shown by their SMILES.

The target of test [1] is T1, oestrogen receptor (ER) (Homo sapiens, UniProt P03372).
T1 construct: These MVLN cells express, along with the functional oestrogen receptor (ER), a reporter construct; endogenous in cells; host or cells: MVLN cells (MCF7 derivative with ER-responsive luciferase reporter)
T1 sequence (P03372 1-595): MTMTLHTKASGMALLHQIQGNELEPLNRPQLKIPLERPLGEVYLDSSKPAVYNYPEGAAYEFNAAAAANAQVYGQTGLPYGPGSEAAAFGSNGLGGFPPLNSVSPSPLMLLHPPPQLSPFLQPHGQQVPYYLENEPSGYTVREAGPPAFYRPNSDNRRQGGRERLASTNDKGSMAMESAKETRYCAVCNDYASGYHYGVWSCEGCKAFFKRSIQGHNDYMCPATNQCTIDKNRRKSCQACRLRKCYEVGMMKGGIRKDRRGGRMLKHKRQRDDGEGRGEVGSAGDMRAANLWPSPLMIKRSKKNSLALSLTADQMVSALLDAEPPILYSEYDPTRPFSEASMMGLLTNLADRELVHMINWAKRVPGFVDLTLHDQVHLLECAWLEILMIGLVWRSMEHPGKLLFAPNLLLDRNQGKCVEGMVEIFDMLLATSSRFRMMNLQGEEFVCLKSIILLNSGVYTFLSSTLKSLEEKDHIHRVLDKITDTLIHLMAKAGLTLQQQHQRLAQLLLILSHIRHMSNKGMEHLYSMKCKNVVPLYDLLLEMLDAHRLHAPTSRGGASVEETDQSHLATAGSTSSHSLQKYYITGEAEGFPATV
The test can be described thus: Anti-oestrogenic action in MVLN cells (inhibition of estradiol-induced luciferase, transactivation antagonism). The settings on record: inhibition of estradiol-induced luciferase activity, read-out: Anti-oestrogenic action in vitro: MVLN transactivation antagonism IC50. Format: cell-based. The gist of the method: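 MCF7-derived MVLN cells carrying an ER-driven luciferase reporter; test compounds applied with estradiol, and anti-oestrogenic action scored as inhibition of the estradiol-induced luciferase signal.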

The subject of test [2] is uterus growth induced by 17β-estradiol. As to the kind of experiment: Anti-uterus growth test in the adult rat. Format: in vivo. Conditions: ovariectomized adult rat, percentage inhibition of uterus growth; for Anti-oestrogenic activity in vivo in % at a dose of 1 mg/kg (rat): 1 mg/kg s.c. d1-d3 with 1.5 μg/kg/day 17β-estradiol; for inhibition in vivo at 0.3 mg/kg: sc, 0.3 mg/kg s.c. d1-d3 with 1.5 μg/kg/day 17β-estradiol, read-out: Anti-oestrogenic activity in vivo in % at a dose of 0.3 mg/kg (rat). The text has this: The uterus of oestrogen-substituted rats can be used as a test model for detecting a direct action of substances with anti-oestrogenic properties. The parameter of oestrogenic action is estradiol-induced uterus growth in rats, which is inhibited by simultaneous administration of a substance with anti-oestrogenic action. The experimental animals (n=5-6 animals/group) were ovariectomized before the start of the test, to rule out the influence of endogenous oestrogens. After a phase of 6 to 10 days, the test substances are administered s.c. on 3 consecutive days (d1-d3) in combination with a substitution dose of 1.5 μg/kg/day of 17β-estradiol. 17β-estradiol alone serves as positive control, and the excipients serve as negative control. On day 4 (d4) the animals are killed, and the uteri and vaginae are removed and weighed. The organ weights are converted to mg/100 g body weight, then the mean value and the standard deviation are calculated for each dosage. The inhibition of uterus or vaginal growth induced by 17β-estradiol is shown as percentage inhibition. The selected claimed substances were investigated in adult female rats as described for their anti-oestrogenic, inhibitory action on the weight of the uterus. At the dosage used, the substances show a marked anti-oestrogenic action in vivo (Table 3 and Table 4).

Usually IC50 stands for the concentration that gives 50% inhibition. For `CN(CCCCCC1=C(c2cccc(O)c2)CCCc2cc(O)ccc21)CCCC[S+]([O-])CCCC(F)(F)C(F)(F)F` (racemic) [Example 6, 8-(3-Hydroxyphenyl)-9-[5-(methyl{4-[(RS)-(4,4,5,5,5-pentafluoropentyl)sulphinyl]butyl}amino)pentyl]-6,7-dihydro-5H-benzo[7]annulen-3-ol], the IC50 in test [1] was 4 nM. In test [2], the “Anti-oestrogenic activity in vivo in % at a dose of 1 mg/kg (rat)” value is 64% and the inhibition in vivo at 0.3 mg/kg is 22%. As for `CN(CCCCCCC1=C(c2cccc(S(C)(=O)=O)c2)CCCc2cc(O)ccc21)CCC[S+]([O-])CCCC(F)(F)C(F)(F)F` (racemic) [Example 21, 8-(3-Mesylphenyl)-9-[6-(methyl{3-[(RS)-(4,4,5,5,5-pentafluoropentyl)sulphinyl]propyl}amino)hexyl]-6,7-dihydro-5H-benzo[7]annulen-3-ol], the concentration for half-maximal inhibition (IC50) in test [1] was 5 nM. Moreover, the inhibition in vivo at 0.3 mg/kg in test [2] was found to be 37%.

As to `CN(CCCCCC1=C(c2ccc(O)c(F)c2)CCCc2cc(O)ccc21)CCC[S+]([O-])CCCC(F)(F)C(F)(F)F` (racemic) [Example 37, 8-(3-Fluoro-4-hydroxyphenyl)-9-[5-(methyl{3-[(RS)-(4,4,5,5,5-pentafluoropentyl)sulphinyl]propyl}amino)pentyl]-6,7-dihydro-5H-benzo[7]annulen-3-ol], in test [1], the 50% inhibitory concentration (IC50) is 1 nM. The inhibition in vivo at 0.3 mg/kg in test [2] turned out to be 59%.

Turning to `CN(CCCCCC1=C(c2ccc(S(C)(=O)=O)cc2)CCCc2cc(O)ccc21)CCC[S+]([O-])CCCC(F)(F)C(F)(F)F` (racemic) [Example 46, 8-(4-Mesylphenyl)-9-[5-(methyl{3-[(RS)-(4,4,5,5,5-pentafluoropentyl)sulphinyl]propyl}amino)pentyl]-6,7-dihydro-5H-benzo[7]annulen-3-ol], in test [1], the IC50 amounted to 14 nM. Moreover, in test [2], the “Anti-oestrogenic activity in vivo in % at a dose of 1 mg/kg (rat)” value was 31%. As for `CN(CCCCCCC1=C(c2ccccc2)CCCc2c1ccc(O)c2Cl)CCCCS(=O)(=O)CCC(F)(F)F` [Example 109, 4-Chloro-9-[6-(methyl{4-[(3,3,3-trifluoropropyl)sulphonyl]butyl}amino)hexyl]-8-phenyl-6,7-dihydro-5H-benzo[7]annulen-3-ol], the IC50 in test [1] came to 87 nM.

In the case of `CN(CCCCCCC1=C(c2ccc(F)c(O)c2)CCCc2cc(O)ccc21)CCCCS(=O)(=O)CCC(F)(F)F` [Example 110, 8-(4-Fluoro-3-hydroxyphenyl)-9-[6-(methyl{4-[(3,3,3-trifluoropropyl)sulphonyl]butyl}amino)hexyl]-6,7-dihydro-5H-benzo[7]annulen-3-ol], the half-inhibitory concentration (IC50) in test [1] was found to be 5 nM. On to `CN(CCCCCC1=C(c2ccccc2)CCCc2cc(O)ccc21)CCCCS(=O)(=O)CCC(F)(F)F` [Example 111, 9-[5-(Methyl{4-[(3,3,3-trifluoropropyl)sulphonyl]butyl}amino)pentyl]-8-phenyl-6,7-dihydro-5H-benzo[7]annulen-3-ol], for which the concentration for half-maximal inhibition (IC50) in test [1] was 250 nM. Take `CN(CCCCCC1=C(c2cccc(O)c2)CCCc2cc(O)ccc21)CCCCS(=O)(=O)CCC(F)(F)F` [Example 112, 8-(3-Hydroxyphenyl)-9-[5-(methyl{4-[(3,3,3-trifluoropropyl)sulphonyl]butyl}amino)pentyl]-6,7-dihydro-5H-benzo[7]annulen-3-ol]: in test [1], the 50% inhibitory concentration (IC50) is 45 nM. On the same count and under the same terms, the result for `CN(CCCCCCC1=C(c2cccc(O)c2)CCCc2cc(O)ccc21)CCCCS(=O)(=O)CCC(F)(F)F` [Example 113, 8-(3-Hydroxyphenyl)-9-[6-(methyl{4-[(3,3,3-trifluoropropyl)sulphonyl]butyl}amino)hexyl]-6,7-dihydro-5H-benzo[7]annulen-3-ol] reads 2 nM; that for `CN(CCCCCCC1=C(c2ccc(F)c(O)c2)CCCc2c1ccc(O)c2F)CCCS(=O)(=O)CCCC(F)(F)C(F)(F)F` [Example 114, 4-Fluoro-8-(4-fluoro-3-hydroxyphenyl)-9-[6-(methyl{3-[(4,4,5,5,5-pentafluoropentyl)sulphonyl]propyl}amino)hexyl]-6,7-dihydro-5H-benzo[7]annulen-3-ol], 20 nM; that for `O=S(=O)(CCCN(CCO)CCCCCCC1=C(c2ccc(F)c(O)c2)CCCc2c1ccc(O)c2F)CCCC(F)(F)C(F)(F)F` [Example 115, 4-Fluoro-8-(4-fluoro-3-hydroxyphenyl)-9-{6-[(2-hydroxyethyl){3-[(4,4,5,5,5-pentafluoropentyl)sulphonyl]propyl}amino]hexyl}-6,7-dihydro-5H-benzo[7]annulen-3-ol], 12 nM. Still for that read-out and setting: for `CN(CCCCCCC1=C(c2ccc(F)c(O)c2)CCCc2c1ccc(O)c2F)CCCS(=O)(=O)CCC(F)(F)C(F)(F)F` [Example 116, 4-Fluoro-8-(4-fluoro-3-hydroxyphenyl)-9-[6-(methyl{3-[(3,3,4,4,4-pentafluorobutyl)sulphonyl]propyl}amino)hexyl]-6,7-dihydro-5H-benzo[7]annulen-3-ol] the value was 34 nM; for `CN(CCCCCCC1=C(c2ccc(F)c(O)c2)CCCc2c1ccc(O)c2F)CCCCS(=O)(=O)CCCC(F)(F)C(F)(F)F` [Example 117, 4-Fluoro-8-(4-fluoro-3-hydroxyphenyl)-9-[6-(methyl{4-[(4,4,5,5,5-pentafluoropentyl)sulphonyl]butyl}amino)hexyl]-6,7-dihydro-5H-benzo[7]annulen-3-ol], 11 nM; for `CN(CCCCCCC1=C(c2ccc(F)c(O)c2)CCCc2c1ccc(O)c2F)CCCCS(=O)(=O)CCCC(F)(F)F` [Example 118, 4-Fluoro-8-(4-fluoro-3-hydroxyphenyl)-9-[6-(methyl{4-[(4,4,4-trifluorobutyl)sulphonyl]butyl}amino)hexyl]-6,7-dihydro-5H-benzo[7]annulen-3-ol], 9 nM. For `CN(CCCCCCC1=C(c2ccc(F)c(O)c2)CCCc2c1ccc(O)c2F)CCCCS(=O)(=O)CCC(F)(F)F` [Example 119, 4-Fluoro-8-(4-fluoro-3-hydroxyphenyl)-9-[6-(methyl{4-[(3,3,3-trifluoropropyl)sulphonyl]butyl}amino)hexyl]-6,7-dihydro-5H-benzo[7]annulen-3-ol], in test [1], the IC50 worked out at 7 nM.

In the case of `CN(CCCCCCC1=C(c2ccc(F)c(O)c2)CCCc2cc(O)c(F)cc21)CCCCS(=O)(=O)CCCC(F)(F)C(F)(F)F` [Example 121, 2-Fluoro-8-(4-fluoro-3-hydroxyphenyl)-9-[6-(methyl{4-[(4,4,5,5,5-pentafluoropentyl)sulphonyl]butyl}amino)hexyl]-6,7-dihydro-5H-benzo[7]annulen-3-ol], the IC50 in test [1] was 7 nM. Turning to `CN(CCCCCCC1=C(c2ccc(F)c(O)c2)CCCc2cc(O)c(F)cc21)CCCS(=O)(=O)CCC(F)(F)C(F)(F)F` [Example 123, 2-Fluoro-8-(4-fluoro-3-hydroxyphenyl)-9-[6-(methyl{3-[(3,3,4,4,4-pentafluorobutyl)sulphonyl]propyl}amino)hexyl]-6,7-dihydro-5H-benzo[7]annulen-3-ol], the IC50 in test [1] is 11 nM. On the same count and under the same terms, the result for `CN(CCCCCCC1=C(c2ccc(F)c(O)c2)CCCc2cc(O)c(F)cc21)CCCS(=O)(=O)CCC(F)(F)F` [Example 126, 2-Fluoro-8-(4-fluoro-3-hydroxyphenyl)-9-[6-(methyl{3-[(3,3,3-trifluoropropyl)sulphonyl]propyl}amino)hexyl]-6,7-dihydro-5H-benzo[7]annulen-3-ol] reads 32 nM; that for `CN(CCCCCCC1=C(c2ccc(F)c(O)c2)CCCc2cc(O)c(F)cc21)CCCS(=O)(=O)CCCC(F)(F)F` [Example 127, 2-Fluoro-8-(4-fluoro-3-hydroxyphenyl)-9-[6-(methyl{3-[(4,4,4-trifluorobutyl)sulphonyl]propyl}amino)hexyl]-6,7-dihydro-5H-benzo[7]annulen-3-ol], 6 nM.

On to `CN(CCCCCCC1=C(c2ccc(F)c(O)c2)CCCc2cc(O)c(F)cc21)CCCCS(=O)(=O)CCCC(F)(F)F` [Example 128, 2-Fluoro-8-(4-fluoro-3-hydroxyphenyl)-9-[6-(methyl{4-[(4,4,4-trifluorobutyl)sulphonyl]butyl}amino)hexyl]-6,7-dihydro-5H-benzo[7]annulen-3-ol], for which, in test [1], the 50% inhibitory concentration (IC50) was determined as 5 nM.
